Test results from patent US20070142378A1, “Method of treating restless legs syndrome and/or periodic limb movement disorder with (2s,3s) 2-(3-chlorophenyl)-3,5,5-trimethyl-2-morpholinol” (Smith Kline Beecham Corporation, priority 2003, published 2007).
Counter-ions that a name gives are not always drawn.

How the values were obtained:
[1] = target: T1, noradrenaline (NA) uptake, synaptosomes from rat hypothalamus (Rattus norvegicus, UniProt Q63380); test: In vitro synaptosomal uptake of [3H]-NA; type: biochemical
T1 construct: Synaptosomes for use in obtaining in vitro uptake data were prepared from hypothalamus or striatum by gently homogenizing the tissue; from tissue; host or cells: rat hypothalamus synaptosomes (1100 x g supernatant)
Experimental: In vitro uptake was determined, as reported previously, using synaptosomes prepared from rat caudoputamen (for dopamine uptake) and hypothalamus (for NA and serotonin uptake) using [^3H]-dopamine, [^3H]-NA and [^3H]-serotonin as transport substrates, respectively. See Eckhardt, S. B., R. A. Maxwell, and R. M. Ferris, A Structure-Activity Study of the Transport Sites for the Hypothalamic and Striatal Catecholamine Uptake Systems. Similarities and differences. Molecular Pharmacology, 21: p. 374-9,1982
Synaptosomes for use in obtaining in vitro uptake data were prepared from hypothalamus or striatum by gently homogenizing the tissue in a 0.3 M sucrose/25 mM Tris pH 7.4 buffer containing iproniazid phosphate to inhibit monoamine oxidase. The homogenate was centrifuged at 1100×g at 4° C. for 10 min and the supernatant was used for uptake studies. […] Under these conditions uptake was linear with respect to both for substrate and tissue (with <5% total substrate transported). Non-specific uptake was defined as uptake at 0° C. [^3H]-substrate, which had been transported into synaptosomes, was separated from free [^3H]-substrate by filtration over GF/B filters and washing with cold Krebs-Henseleit buffer. The filters were counted for tritum in a liquid scintillation spectrometer.

[2] = target: T2, serotonin uptake, synaptosomes from rat hypothalamus (Rattus norvegicus, UniProt P31652); test: In vitro synaptosomal uptake of [3H]-serotonin; type: biochemical; conditions: at 30 μM
T2 construct: Synaptosomes for use in obtaining in vitro uptake data were prepared from hypothalamus or striatum by gently homogenizing the tissue; from tissue; host or cells: rat hypothalamus synaptosomes
Description: Similarities and differences. Molecular Pharmacology, 21: p.

[3] = target: T3, dopamine transporter (DAT) (Homo sapiens, UniProt Q01959); test: Dopamine transporter (DAT) receptor occupancy study, PET with 11C-βCIT-FE; type: in vivo; conditions: for DAT receptor occupancy: Part A, healthy male volunteers, PET 2.5 hours after initiation of dosing; for average DAT receptor occupancy: Part B, 60 mg modified release oral once daily for 6 days
T3 construct: from tissue; host or cells: striatum of healthy male volunteers, in vivo PET with 11C-βCIT-FE
Experimental: The study was conducted in two parts. Part A utilized positron emission tomography (PET) to characterize the concentration-percent occupancy relationship with respect to the dopamine transporter (DAT) after dosing with intravenous compound of formula (I) to pseudo-steady-state. Part B utilized PET to evaluate the time course of occupancy at the dopamine transporter following steady-state dosing of the compound of formula (I) via a modified release oral formulation. The tracer used in this study to assess the occupancy at the DAT was ^11C-βCIT-FE.
Part A. Six healthy male volunteers each received a 20.6 mg intravenous dose of the compound of formula (I) administered via a 2-hour loading infusion followed by a 2-hour maintenance infusion to achieve pseudo-steady-state. Each subject then received two additional doses (61.8 mg and 91.2 mg) of the compound of formula (I), with each dose separated by 3 weeks. A baseline PET scan was performed between 1 and 7 days prior to first dosing with formula (I), and then each post-dose PET scan performed 2.5 hours after the initiation of each of the three dosing regimens.
The concentrate solution for infusion was formulated to contain 10 mg free base equivalent per mL as the hydrochloride salt of the compound of formula (I), and consisted of a clear, colorless solution, pH adjusted to approximately 4.5, buffered with 50 mmol citrate buffer. The product was diluted to a total volume of 250 mL with 0.9% weight-to-volume ratio (w/v) sodium chloride injection prior to being administered.
Part B. Six healthy male volunteers received 60 mg of the compound of formula (I) via a modified release oral formulation once daily for 6 days in order to achieve steady-state by the last day. Four ^11C-βCIT-FE PET scans were performed for each subject, the first between 1 and 7 days prior to dosing and the remaining three at 6, 12 and 24 hours following the final dose on Day 6. The oral formulations were uncoated tablets, containing 20 mg and 40 mg of the compound of formula (I) as the hydrochloride salt details of the formulations are set out below as Examples 6 and 7 (prepared by an analogous method to Examples 1 to 5 above).

[4] = system: cell-lines expressing human monoamine transporters; test: Compound-induced cytotoxicity in the transporter-expressing cells; type: cell-based; conditions: at any of the concentrations causing reuptake inhibition

T3 sequence (Q01959 whole entry): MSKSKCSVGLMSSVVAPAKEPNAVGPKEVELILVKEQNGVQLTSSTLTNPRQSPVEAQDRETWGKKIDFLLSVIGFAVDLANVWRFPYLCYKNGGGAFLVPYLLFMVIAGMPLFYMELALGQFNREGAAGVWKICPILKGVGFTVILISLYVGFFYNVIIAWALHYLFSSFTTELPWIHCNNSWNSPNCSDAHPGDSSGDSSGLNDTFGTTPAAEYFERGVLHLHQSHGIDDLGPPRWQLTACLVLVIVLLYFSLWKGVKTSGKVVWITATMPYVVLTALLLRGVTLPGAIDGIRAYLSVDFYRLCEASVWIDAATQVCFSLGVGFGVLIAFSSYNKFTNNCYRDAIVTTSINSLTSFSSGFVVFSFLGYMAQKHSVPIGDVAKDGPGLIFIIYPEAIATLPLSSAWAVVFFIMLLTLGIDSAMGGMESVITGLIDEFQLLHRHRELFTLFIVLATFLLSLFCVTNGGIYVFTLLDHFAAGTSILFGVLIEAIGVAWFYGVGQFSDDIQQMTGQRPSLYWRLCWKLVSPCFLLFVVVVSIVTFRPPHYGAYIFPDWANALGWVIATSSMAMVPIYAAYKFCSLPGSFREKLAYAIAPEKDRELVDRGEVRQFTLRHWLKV
T1 sequence (Q63380 1-617): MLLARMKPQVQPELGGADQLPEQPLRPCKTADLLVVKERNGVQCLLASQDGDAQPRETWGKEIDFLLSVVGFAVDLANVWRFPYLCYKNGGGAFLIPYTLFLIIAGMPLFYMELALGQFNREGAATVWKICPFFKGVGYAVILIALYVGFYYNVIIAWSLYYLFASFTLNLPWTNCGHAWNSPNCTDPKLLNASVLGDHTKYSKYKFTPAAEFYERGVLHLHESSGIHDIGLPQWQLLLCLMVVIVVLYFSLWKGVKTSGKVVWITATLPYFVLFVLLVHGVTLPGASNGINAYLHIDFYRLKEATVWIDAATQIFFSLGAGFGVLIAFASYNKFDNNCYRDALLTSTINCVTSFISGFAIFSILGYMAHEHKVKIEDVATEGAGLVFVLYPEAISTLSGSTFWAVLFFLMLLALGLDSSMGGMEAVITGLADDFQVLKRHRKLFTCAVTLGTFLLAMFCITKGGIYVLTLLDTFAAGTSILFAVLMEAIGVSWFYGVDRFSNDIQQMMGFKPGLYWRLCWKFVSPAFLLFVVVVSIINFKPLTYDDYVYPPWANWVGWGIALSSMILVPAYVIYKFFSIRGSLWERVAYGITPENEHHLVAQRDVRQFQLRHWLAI
T2 sequence (P31652 whole entry): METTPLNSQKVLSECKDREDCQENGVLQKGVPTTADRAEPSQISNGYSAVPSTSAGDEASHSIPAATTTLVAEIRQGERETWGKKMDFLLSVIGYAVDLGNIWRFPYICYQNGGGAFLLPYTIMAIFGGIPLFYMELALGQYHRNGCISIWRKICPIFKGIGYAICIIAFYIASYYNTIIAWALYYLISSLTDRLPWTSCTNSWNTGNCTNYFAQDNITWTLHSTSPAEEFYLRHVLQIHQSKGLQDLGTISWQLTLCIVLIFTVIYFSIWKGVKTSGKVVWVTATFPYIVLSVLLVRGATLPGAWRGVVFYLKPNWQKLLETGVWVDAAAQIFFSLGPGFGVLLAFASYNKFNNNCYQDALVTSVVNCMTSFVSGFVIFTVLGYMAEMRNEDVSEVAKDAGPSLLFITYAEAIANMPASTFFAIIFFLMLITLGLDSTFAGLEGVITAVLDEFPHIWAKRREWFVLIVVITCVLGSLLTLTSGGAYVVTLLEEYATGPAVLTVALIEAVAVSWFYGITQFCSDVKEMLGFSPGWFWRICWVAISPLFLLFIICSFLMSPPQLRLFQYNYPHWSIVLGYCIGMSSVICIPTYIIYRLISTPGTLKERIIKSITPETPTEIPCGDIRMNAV

| Compound | IC50 [1] | inhibition of serotonin uptake [2] | DAT receptor occupancy ([3]; 20.6 mg intravenous) | DAT receptor occupancy ([3]; 61.8 mg intravenous) | DAT receptor occupancy ([3]; 91.2 mg intravenous) | average DAT receptor occupancy ([3]; 6 hours after the last dose) | average DAT receptor occupancy ([3]; during the following 6 hours (12 hour scan)) | cytotoxicity [4] |
| --- | --- | --- | --- | --- | --- | --- | --- | --- |
| C[C@@H]1NC(C)(C)CO[C@@]1(O)c1cccc(Cl)c1 [Formula (I), (+)-(2S,3S)-2-(3-chlorophenyl)-3,5,5-trimethyl-2-morpholinol] | 1100 nM | no inhibition | 14±0.38% | 37±8.0% | 47±6.8% | 29±5.3% | 27±11.3% | – |
| C[C@@H]1NC(C)(C)CO[C@@]1(O)c1cccc(Cl)c1 [Formula (I).HCl, (+)-(2S, 3S)2-(3-chlorophenyl)-3,5,5-trimethyl-2-morpholinol hydrochloride] | – | – | – | – | – | – | – | No cytotoxicity was observed |
